Assay [1] has as its target T1, zebrafish P2X4 (zfP2X4) WT (Danio rerio, UniProt F8W463).
T1 construct: The cRNAs encoding zebrafish P2X4 (NP_705939; WT); expressed in transfected cells; host or cells: Xenopus laevis oocytes injected with cRNA from pGEMHE
T1 sequence (F8W463 1-389): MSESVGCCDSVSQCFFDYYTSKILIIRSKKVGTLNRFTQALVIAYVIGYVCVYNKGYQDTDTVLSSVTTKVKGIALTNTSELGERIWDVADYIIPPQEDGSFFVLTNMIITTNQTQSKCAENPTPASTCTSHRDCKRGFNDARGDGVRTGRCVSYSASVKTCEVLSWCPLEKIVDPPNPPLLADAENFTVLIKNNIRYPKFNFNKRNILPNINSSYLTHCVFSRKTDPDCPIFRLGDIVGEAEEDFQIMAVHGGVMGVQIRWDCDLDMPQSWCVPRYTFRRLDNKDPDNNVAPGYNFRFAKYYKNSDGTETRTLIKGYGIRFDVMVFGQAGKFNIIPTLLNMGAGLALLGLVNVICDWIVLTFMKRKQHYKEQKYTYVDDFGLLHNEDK
Put plainly: Two Electrode Voltage Clamp recording of Xenopus oocytes expressing zebrafish P2X4 WT. As to conditions: 1 mM nucleotide for 10 sec after prior application of 100 μM ATP; holding potential −70 mV; n = 4. The format is cell-based. An excerpt:
To assess the nucleotide base specificity of zebrafish P2X4 (zfP2X4), we first performed Two Electrode Voltage Clamp (TEVC) recording of Xenopus oocytes. As shown previously, the initial “priming” application with a low concentration of ATP increases P2X receptors sensitivity to second or more applications of ligands, which is useful for evaluating the affinity of ligands. Therefore, we expressed zfP2X4 in oocytes and recorded the zfP2X4-associated currents evoked by the application of high concentrations (1 mM) of nucleoside triphosphates (ATP, CTP, GTP and UTP), following the prior application of 100 μM ATP.
Figure 1 Current responses of zebrafish P2X4 evoked by nucleoside triphosphates. (A–D) Representative currents of zebrafish P2X4 WT, evoked first by 100 μM ATP and then by (A) 1 mM ATP, (B) 1 mM CTP, (C) 1 mM GTP and (D) 1 mM UTP. Each nucleotide was applied for 10 sec. The holding potential was −70 mV.
(§1) The cRNAs encoding zebrafish P2X4 (NP_705939; WT) and rat P2X4 (NP_113782.1; WT and mutants) were transcribed from pGEMHE plasmids, using a mMessage mMachine® T7 ULTRA kit (Ambion, Huntingdon, Cambridgeshire, UK). Xenopus laevis oocytes were prepared, and RNA (100 ng for zebrafish P2X4, and 20 ng for rat P2X4) was injected into the oocytes. The oocytes were incubated at 18 °C in Barth’s solution, containing 88 mM NaCl, 1 mM KCl, 2.4 mM NaHCO3, 10 mM HEPES, 0.33 mM Ca(NO3)2, 0.41 mM CaCl2, and 0.82 mM MgSO4, pH 7.4, supplemented with 50 μg/ml gentamicin, and were used for recording after 2–3 days. Recording solutions contained 100 mM NaCl, 5 mM HEPES, 2 mM MgCl2, pH 7.3, and nucleoside triphosphates (ATP, CTP, GTP, and UTP), which were freshly prepared each day. Oocytes were held at −70 mV with a bath-clamp amplifier (OC-725C, Warner Co., USA), and macroscopic currents were recorded and analyzed using the pClamp 10 software (Molecular Devices, USA)[33][34]. We measured n = 4 for zebrafish P2X4 data and n = 7–9 for rat P2X4 data.

The next assay concerns the target T2, rat P2X4 rH140A mutant (Rattus norvegicus, UniProt P51577, H140A).
T2 construct: rat P2X4 (NP_113782.1; WT and mutants) were transcribed from pGEMHE plasmids; expressed in transfected cells; host or cells: Xenopus laevis oocytes injected with cRNA from pGEMHE
T2 sequence (P51577 1-388 H140A): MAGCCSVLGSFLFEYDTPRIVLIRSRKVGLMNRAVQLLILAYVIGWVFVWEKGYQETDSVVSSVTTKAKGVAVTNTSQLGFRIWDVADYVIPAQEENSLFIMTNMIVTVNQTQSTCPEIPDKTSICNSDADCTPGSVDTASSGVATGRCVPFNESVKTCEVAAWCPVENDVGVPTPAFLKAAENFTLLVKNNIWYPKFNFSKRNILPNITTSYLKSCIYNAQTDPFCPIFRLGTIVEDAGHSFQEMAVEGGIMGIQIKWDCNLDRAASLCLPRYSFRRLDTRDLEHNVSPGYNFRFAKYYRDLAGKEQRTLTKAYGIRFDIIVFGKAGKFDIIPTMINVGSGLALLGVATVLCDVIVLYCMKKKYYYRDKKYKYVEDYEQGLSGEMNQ
In words: Two-Electrode Voltage Clamp recording, rat P2X4 H140A mutant in Xenopus oocytes. The note with it: for fold reduced affinity as compared with rWT: rH140A mutant vs rWT, from EC50; for EC50 / nucleotide-evoked currents: rH140A mutant; for EC50: oocytes held at −70 mV, n = 7-8, read-out: EC50 (evoked current, dose-response); for nucleotide-evoked currents: 3 mM GTP, 3 mM UTP (Fig. S4). The format is cell-based. How it is done:
Figure 4 Current responses of ^rWT, ^rT186S, ^rH140A and ^rH140R evoked by ATP and CTP. (A,B) Representative currents of ^rWT evoked by ATP (1–300 μM) (A) and CTP (10–10,000 μM) (B). (C,D) Representative currents of the ^rT186S mutant evoked by ATP (1–300 μM) (C) and CTP (10–10,000 μM) (D). (E,F) Representative currents of the ^rH140A mutant evoked by ATP (1–300 μM) (E) and CTP (10–10,000 μM) (F). (G,H) Representative currents of the ^rH140R mutant evoked by ATP (1–300 μM) (G) and CTP (10–10,000 μM) (H). (I–K) Concentration-response curves evoked by ATP and CTP in the ^rWT and the ^rT186S mutant (I), in the ^rWT and the ^rH140A mutant (J) and in the ^rWT and the ^rH140R mutant (K). Symbols are defined in the figure, and bars depict means ± SEM (n = 7–9).
Next we assessed the functional role of R143 in zfP2X4, as its side chain forms a hydrogen bond with the cytosine ring in the CTP-bound structure (Fig. 3A,B). This arginine residue is substituted with a similar basic residue, histidine (^rH140), in rat P2X4 (Fig. 3E).
as §1

The values below come from publication PMC5362899, “Structural insights into the nucleotide base specificity of P2X receptors” (Scientific Reports, 2017).

The EC50 is the concentration at which the effect is half-maximal.

Each structure is given as a SMILES string.

Consider `Nc1ncnc2c1ncn2[C@@H]1O[C@H](COP(=O)(O)OP(=O)(O)OP(=O)(O)O)[C@@H](O)[C@H]1O` [ATP, Adenosine 5-triphosphate], for which the “zfP2X4-associated currents evoked by nucleoside triphosphate” value (“zfP2X4-associated currents evoked” for short) in assay [1] was “detected specific ATP- and CTP-evoked currents”. At rat P2X4 rH140A mutant, the “fold reduced affinity as compared with rWT” value is recorded as “about 2.5 fold” and the concentration for a half-maximal effect (EC50) was 0.0428 ± 0.0063 mM.

As for `Nc1ccn([C@@H]2O[C@H](COP(=O)(O)OP(=O)(O)OP(=O)(O)O)[C@@H](O)[C@H]2O)c(=O)n1` [CTP], in assay [1], the “zfP2X4-associated currents evoked” value was “detected specific ATP- and CTP-evoked currents”. On rat P2X4 rH140A mutant, the “fold reduced affinity as compared with rWT” value is reported as roughly 14 fold and the EC50 came out at 7.99 mM.

As to `Nc1nc2c(ncn2[C@@H]2O[C@H](COP(=O)(O)OP(=O)(O)OP(=O)(O)O)[C@@H](O)[C@H]2O)c(=O)[nH]1` [GTP], the “zfP2X4-associated currents evoked” value in assay [1] was “not GTP- and UTP-evoked currents”. The nucleotide-evoked currents entry on rat P2X4 rH140A mutant is “no GTP- and UTP-evoked currents were detected”.

Consider `O=c1ccn([C@@H]2O[C@H](COP(=O)(O)OP(=O)(O)OP(=O)(O)O)[C@@H](O)[C@H]2O)c(=O)[nH]1` [UTP], for which the “zfP2X4-associated currents evoked” value in assay [1] was “not GTP- and UTP-evoked currents”. In addition, at rat P2X4 rH140A mutant, the nucleotide-evoked currents entry was “no GTP- and UTP-evoked currents were detected”.
